What all share (type): cell-based
The target in assay [1] is T1, interaction between AR and ARA70 (Homo sapiens, UniProt P10275).
T1 construct: VP16 fused to the AR aa 36-918 (VP16-AR); expressed in transfected cells; host or cells: DU145
T1 sequence (P10275 36-920): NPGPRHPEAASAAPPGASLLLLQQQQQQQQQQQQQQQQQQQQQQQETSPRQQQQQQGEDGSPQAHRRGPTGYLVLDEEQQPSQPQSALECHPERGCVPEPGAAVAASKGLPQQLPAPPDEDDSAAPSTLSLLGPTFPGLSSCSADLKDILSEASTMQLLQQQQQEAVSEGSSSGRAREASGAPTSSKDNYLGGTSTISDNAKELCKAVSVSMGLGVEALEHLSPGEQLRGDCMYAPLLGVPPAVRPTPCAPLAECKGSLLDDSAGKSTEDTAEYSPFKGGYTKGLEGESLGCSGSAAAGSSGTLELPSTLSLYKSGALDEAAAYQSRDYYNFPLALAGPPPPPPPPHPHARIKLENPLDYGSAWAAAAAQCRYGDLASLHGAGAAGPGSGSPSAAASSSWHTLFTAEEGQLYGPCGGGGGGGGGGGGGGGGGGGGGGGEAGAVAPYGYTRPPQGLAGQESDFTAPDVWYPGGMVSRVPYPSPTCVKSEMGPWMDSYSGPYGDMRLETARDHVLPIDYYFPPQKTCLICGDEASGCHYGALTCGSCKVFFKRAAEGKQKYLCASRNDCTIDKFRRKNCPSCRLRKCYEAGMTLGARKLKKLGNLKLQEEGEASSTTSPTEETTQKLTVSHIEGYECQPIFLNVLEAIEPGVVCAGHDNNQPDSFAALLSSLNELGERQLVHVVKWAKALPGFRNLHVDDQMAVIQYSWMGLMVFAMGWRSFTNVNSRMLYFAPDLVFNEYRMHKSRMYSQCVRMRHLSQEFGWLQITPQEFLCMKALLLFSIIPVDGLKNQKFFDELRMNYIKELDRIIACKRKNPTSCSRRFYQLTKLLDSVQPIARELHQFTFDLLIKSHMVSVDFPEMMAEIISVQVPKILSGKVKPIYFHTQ
In words: Mammalian two-hybrid assay GAL4-ARA70 / VP16-AR in DU145 cells (pG5CAT). The settings on record: 1 nM DHT. The source says:
257. […] Onate, S. A. et al., Science 270, 1354-1357 (1995); Voegel, J. J. et al., EMBO J. 15, 3667-3675 (1996); Yeh, S. et al., Proc. Natl. Acad. Sci. USA 93, 5517-5521(1996); Yeh, S. et al., Proc. Natl. Acad. Sci. USA 95, 5527-5532 (1998); Fujimoto, N. et al., J. BioI. Chem. 274, 8316-8321 (1999); Miyamoto, H. et al., Proc. Natl. Acad. Sci. USA 95 11083-11088 (1998); Kang, H. Y. et al., J. BioI. Chem. 274, 8570-8576 (1999); Yeh, S. et al., Biochem. Biophys. Res. Commun. 248, 361-367 (1998). […] Yeh, S. et al., Proc. Natl. Acad. Sci. USA 93, 5517-5521(1996); Yeh, S. et al., Proc. Natl. Acad. Sci. USA 95, 5527-5532 (1998). […] The interaction between AR and ARA70 was determined by CAT assay using pG5CAT as reporter. […] In contrast, the addition of […] between the AR and ARA70 (FIG. 4a, lane 2 vs 5 and lane 6 vs 8). Similar repression effects also occurred when we replaced ARA70 with other AR coactivators, such as ARA54 or TIF2. Kang, H. Y. et al., J. BioI. Chem. 274, 8570-8576 (1999); Voegel, J. J. et al., EMBO J. 15, 3667-3675 (1996). cAkt and dAkt, however, had very little effect on the interaction between GAL4 fused AR-LBD653-918 and VP16-ARA 70 (VP16 fused ARA70), VP16-ARA54, or VP16-TIF2.
GAL4DBD fused to ARA70 aa 176-401 (GAL4-ARA70), and VP16 fused to the AR aa 36-918 (VP16-AR) were transfected into DU145 cells in the presence or absence of cAkt, dAkt, and LY294002.

A further assay concerns p21 expression. Nature of the assay: p21 promoter activity (luciferase) and p21 protein expression. How it is done:
(§1) 18. […] (A) Akt suppressed androgen/AR-induced p21 promoter activity. […] (B) Androgen/AR-induced PC-3(AR)6 apoptosis and p21 protein expression was blocked by Akt PC-3(AR)6 was transfected with pCDNA3, cAkt, or dAkt, as indicated, for 16 h. […] (C) AR-induced p21 protein expression was enhanced by dAkt in LNCaP cells. […] LNCaP stable transfection with dAkt was confirmed by western blot assay using phospho-Akt (Ser473) antibody. […] TPA was then added for another 24 h and cell apoptosis was determined by TUNEL assay. […] IGF-1 was added for another 30 min, followed by 10 nM TPA treatment for another 24 h. The apoptosis was determined by TUNEL assay. The data are means±s.d. from three independent experiments.

The subject of another assay is AR transactivation. Nature of the assay: AR transactivation, MMTV-luc / (ARE)4-luc luciferase reporter assay. The following applies: LNCaP; MMTV-luc and (ARE)4-luc; 10 nM DHT. For orientation: In a reporter assay the amount or activity of a reporter protein is the signal.
The subject of a further assay is Akt. Nature of the assay: Akt activity in LNCaP cells, Western blot with phospho-Akt (Ser473) antibody. The following applies: LNCaP cells stably transfected with dAkt. How it is done:
as §1
31. […] (D) The LNCaP cells were transfected with plasmids as indicated for 16 h, and the medium was changed to 0.1% CDS media for 2 days. The cell apoptosis was determined by TUNEL assay (E) The LNCaP cells were transfected with plasmids as indicated for 16 h, harvested, and the cell extracts were subjected to SDS-PAGE. The Akt activity was determined by Western blotting using phospho(S473)-Akt antibody. (F) The U87MG cells were transfected with plasmids as indicated for 16 h, and the medium was changed 0.1% CDS media for 2 days. The cell apoptosis was determined by TUNEL assay. Data for luciferase activity and apoptosis are means±s.d. from three independent experiments.
In general terms: A western blot detects proteins with antibodies after separation by electrophoresis.

Entries after “also recorded” stand apart in the source; their conditions may differ.

On to “dAkt: dominant-negative Akt, a kinase deficient mutant, K179A”, for which the “Interaction between AR and ARA70 (CAT activity)” value in assay [1] is “further enhanced the interaction of AR and ARA70; also recorded: further enhanced the interaction between the AR and ARA70”. Also, the “p21 expression in response to androgen” value in the assay with p21 expression (LNCaP stably transfected with dAkt, 10 nM DHT 2 days, 2.5 fold without dAkt) stood at 14.5 fold. In addition, the “Effect on androgen/AR-induced p21 expression” value in the assay on p21 expression (PC-3 cells, transfected) is “enhanced p21 expression in a dose-dependent manner”. For the same substance, in the assay with AR transactivation, the “Effect on AR transactivation” value was “enhanced AR transactivation in both MMTV-Luc and (ARE)4-Luc”. Also, the “Reduction in Akt activity” value with Akt was determined as 50%.

The values are drawn from patent publication US20040235717A1, “Suppression of androgen receptor transactivation through new pathways to ar and ar coactivators and repressors” (priority 2001, published 2004).
